Assay results reported in patent publication US9827221B2, “Crystalline solids of a metAP-2 inhibitor and methods of making and using same” (Zafgen, Inc., priority 2010, dated 2017).
≈ marks a conversion by molar mass, not a printed value.

Columns and labels:
Format in all cases: physicochemical
[1] = Solid-form stability of Form C on storage (conversion to Form A)
Description: A sample of amorphous material of 6-O-(4-dimethylaminoethoxy)cinnamoyl fumagillol was exposed to vapors of neat trichloroethane at ambient temperature. The amorphous form readily deliquesced. The deliquesced sample was stored in a cold environment and evaporated to dryness using a Genevac centrifuge evaporator. The sample was then sealed, submerged in dry ice for ca. 15 minutes and stored in a freezer ([…]). The sample remained glassy during storage in the freezer (−20° C., 9 days), and was then stored at 5° C. (9 days), resulting in crystalline, Form C (see FIG. 13 for micrograph). A portion of the Form C sample was left at ambient temperature.

[2] = Solubility in diisopropyl ether; conditions: organic solvent or mixture
[3] = Solubility in solvent (e.g. aqueous solution that may include a buffer) with pH greater or equal to about 8.0; conditions: pH 8, aqueous buffer, ca. 20° C.
[4] = Stability of the crystalline form to grinding (mortar and pestle; PLM, XRPD); conditions: ca. 500 mg ground with mortar and pestle for approximately 5 minutes
Description: A sample (ca. 500 mg) from the scale-up of crystalline compound as in Example 2 was placed onto a mortar (Agate material, H: 35 mm, L: 77 mm). The sample was then ground using a pestle (length: 80 mm; grinding diameter: 17 mm) for approximately 5 minutes. Throughout the grinding procedure, the sample was allowed to stand for ca. 10 seconds intermittently to ensure that significant heat was not generated. PLM indicated birefrigent material with particle sizes measuring between about 20 μm and 80 μm in length.

| relative stability of the crystalline forms ([1]; Form C relative to Form A) | solid form conversion on storage ([1]; sample left at ambient temperature) | solid form conversion on storage ([1]; sample stored at 5° C.) | solubility ([2]; 50° C.) [mg/mL] | solubility ([2]; room temperature (ca. 20° C.)) [mg/mL] | solubility [3] [mg/mL] | crystallinity after grinding (XRPD) [4] | Compound |
| --- | --- | --- | --- | --- | --- | --- | --- |
| metastable relative to Form A | converted to Form A after three days | converted to Form A after three days | – | – | – | – | CO[C@@H]1[C@H](OC(=O)/C=C/c2ccc(OCCN(C)C)cc2)CCC2(CO2)[C@H]1C1(C)OC1CC=C(C)C (stereo partly shown) [Form C, 6-O-(4-dimethylaminoethoxy)cinnamoyl fumagillol] |
| – | – | – | ~102 (≈ 204 mM) | ~25 (≈ 50 mM) | < 0.2 | remained highly crystalline | CO[C@@H]1[C@H](OC(=O)/C=C/c2ccc(OCCN(C)C)cc2)CCC2(CO2)[C@H]1C1(C)OC1CC=C(C)C (stereo partly shown) [Form A, 6-O-(4-dimethylaminoethoxy)cinnamoyl fumagillol] |
